Assay results from PubChem BioAssay (NCI).
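Values below derive from 48-hour exposures of cells grown in 96-well plates, with endpoints linearly interpolated between the two concentrations bracketing the appropriate inhibition level. GI50 marks 50% less growth. TGI marks complete inhibition of growth.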

Assays:
Assay in all cases: NCI tumour cell line growth inhibition, 48 h
SW-620 colon = test system: SW-620 colon
MCF7 breast = test system: MCF7 breast
HOP-92 NSCLC = test system: HOP-92 NSCLC
OVCAR-3 ovarian = test system: OVCAR-3 ovarian
MOLT-4 leukemia = test system: MOLT-4 leukemia
OVCAR-4 ovarian = test system: OVCAR-4 ovarian
BT-549 breast = test system: BT-549 breast
SN12C renal = test system: SN12C renal
ACHN renal = test system: ACHN renal
OVCAR-5 ovarian = test system: OVCAR-5 ovarian

Compound | TGI (SW-620 colon) | TGI (MCF7 breast) | TGI (HOP-92 NSCLC) | TGI (OVCAR-3 ovarian) | TGI (MOLT-4 leukemia) | TGI (OVCAR-4 ovarian) | TGI (BT-549 breast) | TGI (SN12C renal) | TGI (ACHN renal) | TGI (OVCAR-5 ovarian) | GI50 (MCF7 breast) | GI50 (MOLT-4 leukemia)
CN1CCN(C2=CC(=O)c3c(O)ccc(O)c3C2=O)CC1 | 1.89 µM | 1.18 µM | 3.29 µM | 0.611 µM | 4.75 µM | 3.46 µM | 3.14 µM | 2.99 µM | 2.88 µM | – | – | –
CCN1CCC(O)(/C=C/c2ccc(OC)cc2)C(C(=O)/C=C/c2ccc(OC)cc2)C1 (stereo not given) | 17.9 µM | 10.7 µM | 21.3 µM | 27.6 µM | 12.4 µM | 26.7 µM | 28.9 µM | 28 µM | 26.6 µM | 28.8 µM | – | –
C[C@H]1COC2=C1C(=O)C(=O)c1c2ccc2c1CCCC2(C)C | 34.5 µM | 7.88 µM | > 100 µM | 5.92 µM | > 56.2 µM | > 100 µM | 5.71 µM | 21.1 µM | > 81.7 µM | > 91.4 µM | – | –
[N-]=[N+]=Nc1c([N+](=O)[O-])c(=O)n2c3c(cccc13)CCC2 | 13.9 µM | 27 µM | 30 µM | 32.5 µM | 5.58 µM | 27 µM | 32.7 µM | 25.9 µM | 31.8 µM | 30.2 µM | – | –
Oc1cc(Br)cc2cc(Cl)cnc12 | > 46.2 µM | 23.8 µM | > 100 µM | 11.2 µM | 7.49 µM | 12.8 µM | 47.6 µM | 45.1 µM | > 68 µM | > 100 µM | – | –
CCCCCCCCCCCCCC(=O)N(CCCCCCCCC)CC(O)C(O)C(OC1OC(CO)C(O)C(O)C1O)C(O)CO (stereo not given) | 36.5 µM | > 100 µM | 34 µM | 53.1 µM | 44.9 µM | 46.6 µM | 43.7 µM | 37.1 µM | 30.5 µM | > 100 µM | – | –
OC1C[C@H](c2ccccc2)C2(C(O)c3ccccc3C2O)[C@@H](c2ccccc2)C1 (stereo not given in full) | > 100 µM | > 100 µM | > 100 µM | > 100 µM | > 100 µM | > 100 µM | > 100 µM | > 100 µM | > 100 µM | > 100 µM | – | –
CSc1scc2c1/C(=N/NC(N)=O)CCC2 | > 100 µM | > 100 µM | 90 µM | > 100 µM | > 100 µM | > 100 µM | > 100 µM | > 100 µM | > 100 µM | > 100 µM | – | –
CC(=O)OC1COC(Nc2nc(N)n(C)c(=O)c2N=O)C(OC(C)=O)C1OC(C)=O (stereo not given) | > 10 µM | > 10 µM | > 10 µM | > 10 µM | > 10 µM | > 10 µM | > 10 µM | > 10 µM | > 10 µM | > 10 µM | – | –
O=C(O)C(=O)/C=C(\O)c1ccc(Br)cc1 | > 100 µM | > 100 µM | > 100 µM | > 100 µM | > 100 µM | > 100 µM | > 100 µM | > 100 µM | > 100 µM | > 100 µM | – | –
Brc1ccc2c(-c3csc(-c4c[nH]c5ccccc45)n3)c[nH]c2c1 | 30.1 µM | 37.1 µM | 33.3 µM | 29.1 µM | 36.3 µM | 39.8 µM | 37.4 µM | 39.2 µM | 32.1 µM | 32.7 µM | 16.7 µM | 19.9 µM
O=[N+]([O-])C(Cl)=C/C(=C(\Cl)SCc1ccccc1)[N+](=O)[O-] | 59.3 µM | > 100 µM | 36.1 µM | 32 µM | 46.9 µM | 41.2 µM | 50.2 µM | 45.3 µM | 32.2 µM | 52.4 µM | – | –
CC(=O)/C(=C/N1CCNC1=S)C(=O)Nc1ccccc1C | > 100 µM | > 100 µM | > 100 µM | > 100 µM | > 100 µM | > 100 µM | > 100 µM | > 100 µM | > 100 µM | > 100 µM | – | –
COC(=O)C1=C(C(=O)OC)SC2(S1)C(C(=O)OC)=C(C(=O)OC)Sc1c2ssc1=NC(C)(C)C | – | 3.22 µM | 2.76 µM | 3.5 µM | 2.16 µM | 3.32 µM | 7.47 µM | 2.52 µM | 3.35 µM | 3.68 µM | – | –
COc1ccc(N2NC(c3ccccc3)(c3ccccc3)C(C)C2=O)cc1 (stereo not given) | > 100 µM | > 100 µM | > 100 µM | > 100 µM | > 100 µM | > 100 µM | > 100 µM | > 100 µM | > 100 µM | > 100 µM | – | –
CCOC(=O)/C=C(\C(=O)OCC)n1ccc(=O)[nH]c1=O | 7.85 µM | 23.9 µM | 9.04 µM | 26.1 µM | 12.4 µM | > 52.3 µM | 30.7 µM | 26.4 µM | 23.6 µM | 34.8 µM | – | –
C=C(C)CNC(=S)N(N)c1ccc2ccccc2c1 | > 100 µM | > 100 µM | > 100 µM | > 100 µM | > 100 µM | > 100 µM | > 100 µM | > 100 µM | > 100 µM | 77.4 µM | – | –
Cc1ccc([N+](=O)[O-])c2c(NCC(O)CO)ccnc12 (stereo not given) | > 100 µM | > 100 µM | > 100 µM | > 100 µM | > 100 µM | > 100 µM | > 100 µM | > 100 µM | > 100 µM | > 100 µM | – | –
COc1ccc(Nc2nc(N)c(C(=O)c3cccs3)s2)cc1 | > 100 µM | 24.9 µM | 89.3 µM | > 32.4 µM | 17.2 µM | 48.1 µM | > 100 µM | > 75.6 µM | > 100 µM | > 79.7 µM | – | –
Cc1c(C(=O)O)n2cnnc2c2ccccc12 | > 100 µM | > 100 µM | > 100 µM | > 100 µM | > 100 µM | > 100 µM | > 100 µM | > 100 µM | > 100 µM | > 100 µM | – | –
Cc1sc2nc3n(c(=O)c2c1C)N=CN(c1ccc(F)cc1)C3 | > 100 µM | > 100 µM | 83.9 µM | > 100 µM | > 100 µM | 38.5 µM | > 100 µM | > 100 µM | > 100 µM | > 100 µM | – | –
